Laboratory results as given in PubChem BioAssay AID1963446 (Molecular Pharmacology Branch, DTP, NCI, 2024).

System: 993429-296-R-J1-PDC complex spheroid growth, percent test/control
Test: Anticancer human tumor 993429-296-R-J1-PDC patient-derived uterine sarcoma cell line growth inhibition [Asc]
Settings: for IC50: curve of first compound; for viability, T/C: stronger effect = lower value
In short: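 Spheroid model: tumor line + HUVEC + hMSC. Single agents and combinations; top conc. at/near clinical Cmax (10 microM if undetermined), half-log dilutions. DMSO stocks at 800-fold test concentration.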

[1] = second compound 0.01 µM, first compound 0.0316 µM
[2] = second compound 0.01 µM, first compound 0.1 µM
[3] = second compound 0.01 µM, first compound 0.316 µM
[4] = second compound 0.01 µM, first compound 1 µM
[5] = second compound 0.0316 µM, first compound 0.0316 µM
[6] = second compound 0.0316 µM, first compound 0.1 µM
[7] = second compound 0.0316 µM, first compound 0.316 µM
[8] = second compound 0.0316 µM, first compound 1 µM
[9] = second compound 0.1 µM, first compound 0.0316 µM
[10] = second compound 0.1 µM, first compound 0.1 µM
[11] = second compound 0.1 µM, first compound 0.316 µM
[12] = second compound 0.1 µM, first compound 1 µM
[13] = second compound 0.316 µM, first compound 0.0316 µM
[14] = second compound 0.316 µM, first compound 0.1 µM
[15] = second compound 0.316 µM, first compound 0.316 µM
[16] = second compound 0.316 µM, first compound 1 µM
[17] = second compound 1 µM, first compound 0.0316 µM
[18] = second compound 1 µM, first compound 0.1 µM
[19] = second compound 1 µM, first compound 0.316 µM
[20] = second compound 1 µM, first compound 1 µM
[21] = second compound 0.01 µM, first compound 0.00316 µM
[22] = second compound 0.01 µM, first compound 0.01 µM
[23] = second compound 0.0316 µM, first compound 0.00316 µM
[24] = second compound 0.0316 µM, first compound 0.01 µM
[25] = second compound 0.1 µM, first compound 0.00316 µM
[26] = second compound 0.1 µM, first compound 0.01 µM
[27] = second compound 0.316 µM, first compound 0.00316 µM
[28] = second compound 0.316 µM, first compound 0.01 µM
[29] = second compound 1 µM, first compound 0.00316 µM
[30] = second compound 1 µM, first compound 0.01 µM
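Further: spheroids exposed to compounds for seven days.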

SMILES | IC50 (second compound 0.01 µM) [nM] | IC50 (second compound 0.0316 µM) [nM] | IC50 (second compound 0.1 µM) [nM] | IC50 (second compound 0.316 µM) [nM] | IC50 (second compound 1 µM) [nM] | viability, T/C [1] [%] | viability, T/C [2] [%] | viability, T/C [3] [%] | viability, T/C [4] [%] | viability, T/C [5] [%] | viability, T/C [6] [%] | viability, T/C [7] [%] | viability, T/C [8] [%] | viability, T/C [9] [%] | viability, T/C [10] [%] | viability, T/C [11] [%] | viability, T/C [13] [%] | viability, T/C [14] [%] | viability, T/C [17] [%] | viability, T/C [18] [%] | further results
C=CC(=O)N1CCN(c2nc(=O)n(-c3c(C)ccnc3C(C)C)c3nc(-c4c(O)cccc4F)c(F)cc23)C(C)C1 (stereo not given) + CNC(C)C(=O)NC1CN(S(=O)(=O)c2cccc(S(=O)(=O)N3CCC4CCC(C(=O)NC(c5ccccc5)c5ccccc5)N4C(=O)C(NC(=O)C(C)NC)C3)c2)CCC2CCC(C(=O)NC(c3ccccc3)c3ccccc3)N2C1=O | > 10000 | > 10000 | > 10000 | > 10000 | > 10000 | 58.3 | 67.2 | 71.1 | 69.7 | 58.9 | 65.8 | 66.2 | 49.3 | 56.7 | 49.8 | 62.8 | 52.3 | 48.6 | 51.7 | 57.3 | viability, T/C (second compound 0.01 µM, first compound 3.16 µM): 75.1%; viability, T/C (second compound 0.01 µM, first compound 10 µM): 68.1%; viability, T/C (second compound 0.0316 µM, first compound 3.16 µM): 62.8%; viability, T/C (second compound 0.0316 µM, first compound 10 µM): 61.2%; viability, T/C [12]: 65%; viability, T/C (second compound 0.1 µM, first compound 3.16 µM): 59.9%; viability, T/C (second compound 0.1 µM, first compound 10 µM): 64.5%; viability, T/C [15]: 60.6%; viability, T/C [16]: 55.9%; viability, T/C (second compound 0.316 µM, first compound 3.16 µM): 62.1%; viability, T/C (second compound 0.316 µM, first compound 10 µM): 59.5%; viability, T/C [19]: 61.5%; viability, T/C [20]: 60.6%; viability, T/C (second compound 1 µM, first compound 3.16 µM): 59.2%; viability, T/C (second compound 1 µM, first compound 10 µM): 59%
COc1c(OCCCN2CCOCC2)ccc2c3n(c(=NC(=O)c4cnc(N)nc4)nc12)CCN3 + CNC(C)C(=O)NC1CN(S(=O)(=O)c2cccc(S(=O)(=O)N3CCC4CCC(C(=O)NC(c5ccccc5)c5ccccc5)N4C(=O)C(NC(=O)C(C)NC)C3)c2)CCC2CCC(C(=O)NC(c3ccccc3)c3ccccc3)N2C1=O | 16.3 | 9.29 | 12.1 | 5.34 | 4.09 | 36.4 | 12.3 | 3.69 | 1.21 | 32.9 | 12.4 | 4.55 | 1.09 | 29.9 | 12.2 | 3.36 | 24.5 | 8.8 | 24.8 | 11.3 | viability, T/C [21]: 68.8%; viability, T/C [22]: 60.1%; viability, T/C [23]: 54.7%; viability, T/C [24]: 50%; viability, T/C [25]: 57.1%; viability, T/C [26]: 56.9%; viability, T/C [12]: 1.18%; viability, T/C [27]: 58%; viability, T/C [28]: 39.8%; viability, T/C [15]: 3.2%; viability, T/C [16]: 1.42%; viability, T/C [29]: 52.4%; viability, T/C [30]: 41.6%; viability, T/C [19]: 4.7%; viability, T/C [20]: 0.9%
NC1CCC(NC2CC2c2ccccc2)CC1 (stereo not given) + CNC(C)C(=O)NC1CN(S(=O)(=O)c2cccc(S(=O)(=O)N3CCC4CCC(C(=O)NC(c5ccccc5)c5ccccc5)N4C(=O)C(NC(=O)C(C)NC)C3)c2)CCC2CCC(C(=O)NC(c3ccccc3)c3ccccc3)N2C1=O | > 100 | > 100 | > 100 | > 100 | < 0.316 | 57.8 | 63.4 | – | – | 57.7 | 57.9 | – | – | 58.3 | 56 | – | 53.2 | 49.8 | 47.9 | 28.1 | viability, T/C (second compound 0.01 µM, first compound 0.000316 µM): 63.9%; viability, T/C (second compound 0.01 µM, first compound 0.001 µM): 62.7%; viability, T/C [21]: 57.3%; viability, T/C [22]: 63.6%; viability, T/C (second compound 0.0316 µM, first compound 0.000316 µM): 53.3%; viability, T/C (second compound 0.0316 µM, first compound 0.001 µM): 56.3%; viability, T/C [23]: 48.5%; viability, T/C [24]: 46.5%; viability, T/C (second compound 0.1 µM, first compound 0.000316 µM): 53.1%; viability, T/C (second compound 0.1 µM, first compound 0.001 µM): 53.5%; viability, T/C [25]: 58.6%; viability, T/C [26]: 54.9%; viability, T/C (second compound 0.316 µM, first compound 0.000316 µM): 59.7%; viability, T/C (second compound 0.316 µM, first compound 0.001 µM): 51.5%; viability, T/C [27]: 48.1%; viability, T/C [28]: 50.2%; viability, T/C (second compound 1 µM, first compound 0.000316 µM): 45.9%; viability, T/C (second compound 1 µM, first compound 0.001 µM): 41.7%; viability, T/C [29]: 39.7%; viability, T/C [30]: 41.1%
